Data published in patent US7598399B2, “Methods for synthesis of 3-amino-1-arylpropyl indoles” (Roche Palo Alto LLC, priority 2005, dated 2009).

- melting point: 134 to 137 °C
SMILES: CNCC[C@@H](c1ccccc1)c1c[nH]c2cccc(OC)c12 [[(S)-3-(4-Methoxy-1H-indol-3-yl)-3-phenyl-propyl]-methyl-amine]
